Values of other authors, collected in patent US20220016034A1, “OPIOID RECEPTOR MODULATOR DOSAGE FORMULATIONS” (Allergan Holdings Unlimited Company, priority 2020, published 2022).

System: stressed and non-stressed mice

CN(C)C(=O)C(CCN1CCC(O)(c2ccc(Cl)cc2)CC1)(c1ccccc1)c1ccccc1 [loperamide]
gastrointestinal transit and fecal output: completely prevented fecal output in a dose-dependent manner
